Laboratory results as given in patent US12076307B2, “Compositions for prevention or treatment of acute radiation syndrome and other radiation exposure” (priority 2017, dated 2024).
“And” between values parts separate entries of the source, which are not always exact repeats. Equal values may be shown once.

Experiments:
[1] = Plasma radioactivity in rats after single oral or IV [14C]EC-18; assay type: in vivo, rat
Description: Male SD rats in the fed state were administered a single oral dose of 25, 50, or 100 mg/kg (vehicle: olive oil) or a single IV injection of 10 mg/kg of [^14C]EC-18 (EC-18 with radioactive isotope ^14C attached). Subsequently, the PK parameters were assessed. The concentration of radioactivity in rat plasma was measured by liquid scintillation counting (LSC) method after adding a scintillator (Clear-Sol I, Nacalai Tesque, Inc).

[2] = Plasma and lymphatic radioactivity after single oral [14C]EC-18 50 mg/kg in cannulated rats; assay type: in vivo, rat; details: 50 mg/kg oral; for Radioactive Concentration in Plasma: n=3
Description: After inserting a cannula into the intestinal tract of male SD rats, the rats in fed condition were given a single dose of [^14C]EC-18 (oral dose of 50 mg/kg; vehicle: olive oil), and samples were collected after 0.5, 1, 2, 4, 6, and 8 hrs of administration. In parallel, lymphatic fluid samples were collected from conscious rats up to 8 hrs after administration. The radioactive concentrations in rat plasma and lymphatic fluid were measured by LSC after adding a scintillator, and the quantified data are shown in Table 19.

[3] = Whole blood and lymphatic radioactivity in rats after single oral [14C]EC-18 100 mg/kg; assay type: in vivo, rat; details: 100 mg/kg oral, n=3; for Tmax: 100 mg/kg
Description: Male SD rats in fasted condition were administered a single dose of [^14C]EC-18 (oral dose of 100 mg/kg; vehicle: olive oil), and the radioactive concentration of the EC-18 was measured in whole blood samples at 0.5, 1, 2, 3, 4, 6, and 8 hrs after its administration. In parallel, male rats with a cannula inserted into the intestinal tract were administered a single dose of [^14C]EC-18 (oral dose of 100 mg/kg; vehicle: olive oil) and the concentration of EC-18-related radioactivity was measured in lymphatic fluid collected in conscious rats at 0.5, 1, 2, 3, 4, 6, and 8 hrs after its administration (FIG. 60). Then, the values of PK parameters were calculated using the quantitative data from whole blood and lymphatic fluid samples (Table 20). Following a single oral administration of [14C]EC-18, EC-18 concentration in the lymphatic fluid of rats was 10 to 53 times higher than that in whole blood (FIG. 60).

[4] = Whole-body autoradiography of rats after single oral [14C]EC-18; assay type: in vivo, rat; details: 200 mg/kg oral, fasted
Description: Male albino rats in fasted conditions were administered a single dose of [^14C]EC-18 (oral dose of 200 mg/kg, vehicle: olive oil). The distribution and levels of radioactivity in the body were observed by whole-body autoradiography performed at 0.25, 1, 8, and 24 hrs after [^14C]EC-18 administration.

[5] = Pathway of excretion in rats after single oral [14C]EC-18; assay type: in vivo, rat; details: 50 mg/kg oral
Description: To assess the routes of EC-18 excretion, male rats were administered a single dose of [^14C]EC-18 (oral dose of 50 mg/kg), after which, radioactive concentrations were measured in urine, feces, and exhaled air in the chamber of the animals for 168 hrs, and in the body after the autopsy.

Balb/c mice, 6.11 Gy TBI = experiment: Structural analog / calorie effect study: EC-18, PLH, olive oil in 6.11 Gy ARS model; assay type: in vivo, mouse; details: 250 mg/kg daily
Description: Similarly, a structural analog efficacy study was conducted to identify the optimally functional molecule in the ARS murine model. The study was performed with the structural analog in which the acetyl group in EC-18 is replaced with a hydroxyl group (yielding palmitic linoleic hydroxyl glycerol, PLH) in 20 Balb/c mice (10 female and 10 male) per group. Mice were irradiated with TBI of 6.11Gy at day 0 and 250 mg/kg of EC-18 or PLH were given daily in-life.
The purpose of this study was to assess whether extra calories of EC-18 contribute to the enhanced survival in mice after exposure to a whole-body sublethal dose of γ-radiation. The study was performed with the structural analog in which the acetyl group in EC-18 is replaced with a hydroxyl group (yielding PLH) in a total of 100 BALB/c mice ([…]; 20 animals per study group) aged at 11 weeks. Mice were irradiated with TBI of 6.11Gy at day 0 and the same dosage (250 mg/kg) of EC-18, PLH, or olive oil (vehicle control) were given daily in-life.

CXCL8 = CXCL8 release in HaCaT cells treated with CM or rhHMGB1; assay type: cell-based, human; details: rhHMGB1-treated cells
Description: An additional experiment was tested for assessing whether EC-18 treatment leads to early termination of the RIPK1/3-MLKL-mediated downstream necroptosis pathway. This was performed by using DAMP-containing conditioned media (CM) harvested from HaCaT cells, irradiated for 48 hrs, and analyzed after 2 or 72 hrs of EC-18 treatment. […] To further confirm that DAMPs in CM contribute to the activation of a necroptosis signaling pathway in a paracrine manner, recombinant human HMGB1 (rhHMGB1) was treated directly to the normal HaCaT cells. The rhHMGB1 elevated the phosphorylation of RIPK1/3 and MLKL after 2 hrs and subsequently released HMGB1 and HSP90 (FIGS. 35C-35D). To evaluate whether EC-18 mitigates the activation of RIPK1/3 and MLKL, 10 or 100 μg/mL of EC-18 was treated before the addition of CM or rhHMGB1. As a result, EC-18 lowered the phosphorylation of RIPK/3 and MLKL in both CM- and rhHMGB1-treated cells after 2 hrs. Release of HMGB1 and Hsp90 was also subsided by EC-18 after 72 hrs of post addition of CM or rhHMGB1 to the cells (FIGS. 35A-35D). TLR4-induced necroptosis signaling pathway caused by DAMP release produces cytokines, such as CXCL8, a chemotactic cytokine for neutrophils. As CXCL8 increases upon tissue damage, it was measured in cells treated with CM or rhHMGB1 as a measure of inflammation. CXCL8 of CM from cells treated with chemo and radiotherapy was used for this evaluation. […] Moreover, rhHMGB1 increased the production of CXCL8, modulated by EC-18.

[6] = Oral 25 mg/kg, plasma, fed, n=3
[7] = Oral 50 mg/kg, plasma, fed, n=3
[8] = Oral 100 mg/kg, plasma, fed, n=3

CCCCC/C=C\C/C=C\CCCCCCCC(=O)OC(COC(C)=O)COC(=O)CCCCCCCCCCCCCCC (centres unmarked) [[^14C]EC-18]
AUClast ([1]; IV 10 mg/kg, plasma, fed, n=3): 215 ± 11 μg eq · hr/mL
Cmax (= C0) ([1]; IV 10 mg/kg, plasma, fed, n=3): 81.5 ± 3.4 μg eq/mL
t1/2 ([1]; IV 10 mg/kg, plasma, fed, n=3): 32.5 ± 1.2 h
F ([1]; Oral 25 mg/kg): 46%
AUClast [1, 6]: 224 ± 30 μg eq · hr/mL
Cmax [1, 6]: 7.2 ± 1.4 μg eq/mL
Tmax [1, 6]: 7.3 ± 5.0 h
t1/2 [1, 6]: 32.0 ± 3.1 h
F ([1]; Oral 50 mg/kg): 49%
AUClast [1, 7]: 473 ± 53 μg eq · hr/mL
Cmax [1, 7]: 16.6 ± 1.4 μg eq/mL
Tmax [1, 7]: 4.7 ± 2.3 h
t1/2 [1, 7]: 31.4 ± 1.8 h
F ([1]; Oral 100 mg/kg): 42%
AUClast [1, 8]: 830 ± 29 μg eq · hr/mL
Cmax [1, 8]: 29.6 ± 2.7 μg eq/mL
Tmax [1, 8]: 6.0 ± 3.5 h
t1/2 [1, 8]: 31.7 ± 3.5 h
Radioactive Concentration in Plasma ([2]; 0.5 hr): 0.096 ± 0.096 μg eq/mL
Radioactive Concentration in Plasma ([2]; 1 hr): 0.689 ± 0.796 μg eq/mL
Radioactive Concentration in Plasma ([2]; 2 hr): 2.09 ± 1.65 μg eq/mL
Radioactive Concentration in Plasma ([2]; 4 hr): 6.51 ± 2.21 μg eq/mL
Radioactive Concentration in Plasma ([2]; 6 hr): 10.2 ± 2.7 μg eq/mL
radioactive concentration in plasma as share of the administered dose ([2]; 8 h): approximately 28%
Radioactive Concentration in Plasma ([2]; 8 hr, 50 mg/kg): 17.5 μg eq/mL and 17.5 ± 4.9 μg eq/mL
AUC0-inf ([3]; Lymphatic Fluid): 53900 ± 39100 μg eq · hr/mL
AUC0-last ([3]; Lymphatic Fluid): 20400 ± 600 μg eq · hr/mL
Cmax ([3]; Lymphatic Fluid): 1210 ± 200 µg/mL
t1/2 ([3]; Lymphatic Fluid): 29.7 ± 28.1 h
Tmax ([3]; Lymphatic Fluid): 7.0 ± 2.0 h
AUC0-inf ([3]; Whole Blood, fasted): 819 ± 130 μg eq · hr/mL
AUC0-last ([3]; Whole Blood, fasted): 496 ± 69 μg eq · hr/mL
Cmax ([3]; Whole Blood, fasted): 38.8 ± 9.5 µg/mL
t1/2 ([3]; Whole Blood, fasted): 16.8 ± 1.9 h
Tmax ([3]; Whole Blood, fasted): 3.8 ± 2.9 h
site of highest radioactivity ([4]; 0.25 hr): stomach and small intestine
site of highest radioactivity ([4]; 1 hr): stomach and small intestine
site of highest radioactivity ([4]; 8 hrs): inner walls of the stomach
radioactivity distribution ([4]; 24 hrs): low radioactivity was observed in the liver
Cumulative Radioactive Concentration Relative to the Administered Dose, Cage-Cleaning Water ([5]; 0-24 hr): 0.0 ± 0.0%
Cumulative Radioactive Concentration Relative to the Administered Dose, Exhaled Air ([5]; 0-24 hr, 50 mg/kg): 71.0 ± 3.2%
Cumulative Radioactive Concentration Relative to the Administered Dose, Feces ([5]; 0-24 hr, 50 mg/kg): 3.0 ± 0.5%
Cumulative Radioactive Concentration Relative to the Administered Dose, Total ([5]; 0-24 hr, 50 mg/kg): 75.9 ± 3.2%
Cumulative Radioactive Concentration Relative to the Administered Dose, Urine ([5]; 0-24 hr, 50 mg/kg): 1.9 ± 0.3%
Cumulative Radioactive Concentration Relative to the Administered Dose, Cage-Cleaning Water ([5]; 0-48 hr): 0.1 ± 0.1%
Cumulative Radioactive Concentration Relative to the Administered Dose, Exhaled Air ([5]; 0-48 hr): 75.0 ± 3.8%
Cumulative Radioactive Concentration Relative to the Administered Dose, Feces ([5]; 0-48 hr): 3.6 ± 0.7%
Cumulative Radioactive Concentration Relative to the Administered Dose, Total ([5]; 0-48 hr): 80.7 ± 3.8%
Cumulative Radioactive Concentration Relative to the Administered Dose, Urine ([5]; 0-48 hr): 2.1 ± 0.3%
Cumulative Radioactive Concentration Relative to the Administered Dose, Cage-Cleaning Water ([5]; 0-72 hr): 0.1 ± 0.0%
Cumulative Radioactive Concentration Relative to the Administered Dose, Exhaled Air ([5]; 0-72 hr, 50 mg/kg): 76.7 ± 3.9%
Cumulative Radioactive Concentration Relative to the Administered Dose, Feces ([5]; 0-72 hr, 50 mg/kg): 3.8 ± 0.7%
Cumulative Radioactive Concentration Relative to the Administered Dose, Total ([5]; 0-72 hr, 50 mg/kg): 82.8 ± 3.9%
Cumulative Radioactive Concentration Relative to the Administered Dose, Urine ([5]; 0-72 hr, 50 mg/kg): 2.2 ± 0.3%
Cumulative Radioactive Concentration Relative to the Administered Dose, Cage-Cleaning Water ([5]; 0-96 hr): 0.1 ± 0.0%
Cumulative Radioactive Concentration Relative to the Administered Dose, Exhaled Air ([5]; 0-96 hr): 77.7 ± 3.9%
Cumulative Radioactive Concentration Relative to the Administered Dose, Feces ([5]; 0-96 hr): 3.9 ± 0.7%
Cumulative Radioactive Concentration Relative to the Administered Dose, Total ([5]; 0-96 hr): 84.0 ± 3.8%
Cumulative Radioactive Concentration Relative to the Administered Dose, Urine ([5]; 0-96 hr): 2.3 ± 0.4%
Cumulative Radioactive Concentration Relative to the Administered Dose, Cage-Cleaning Water ([5]; 0-120 hr): 0.1 ± 0.0%
Cumulative Radioactive Concentration Relative to the Administered Dose, Exhaled Air ([5]; 0-120 hr): 78.4 ± 3.9%
Cumulative Radioactive Concentration Relative to the Administered Dose, Feces ([5]; 0-120 hr): 4.0 ± 0.7%
Cumulative Radioactive Concentration Relative to the Administered Dose, Total ([5]; 0-120 hr): 84.8 ± 3.8%
Cumulative Radioactive Concentration Relative to the Administered Dose, Urine ([5]; 0-120 hr): 2.3 ± 0.4%
Cumulative Radioactive Concentration Relative to the Administered Dose, Cage-Cleaning Water ([5]; 0-144 hr): 0.1 ± 0.0%
Cumulative Radioactive Concentration Relative to the Administered Dose, Exhaled Air ([5]; 0-144 hr): 78.9 ± 3.9%
Cumulative Radioactive Concentration Relative to the Administered Dose, Feces ([5]; 0-144 hr): 4.1 ± 0.7%
Cumulative Radioactive Concentration Relative to the Administered Dose, Total ([5]; 0-144 hr): 85.4 ± 3.8%
Cumulative Radioactive Concentration Relative to the Administered Dose, Urine ([5]; 0-144 hr): 2.3 ± 0.4%
Cumulative Radioactive Concentration Relative to the Administered Dose, Cage-Cleaning Water ([5]; 0-168 hr): 0.1 ± 0.0%
Cumulative Radioactive Concentration Relative to the Administered Dose, Cadaver ([5]; 0-168 hr, 50 mg/kg): 9.8 ± 1.0%
Cumulative Radioactive Concentration Relative to the Administered Dose, Exhaled Air ([5]; 0-168 hr, 50 mg/kg): 79.3 ± 3.9%
Cumulative Radioactive Concentration Relative to the Administered Dose, Feces ([5]; 0-168 hr, 50 mg/kg): 4.2 ± 0.7%
Cumulative Radioactive Concentration Relative to the Administered Dose, Total ([5]; 0-168 hr, 50 mg/kg): 95.7 ± 3.3%
Cumulative Radioactive Concentration Relative to the Administered Dose, Urine ([5]; 0-168 hr, 50 mg/kg): 2.3 ± 0.4%

CCCCC/C=C\C/C=C\CCCCCCCC(=O)OC(CO)COC(=O)CCCCCCCCCCCCCCC (centres unmarked) [PLH, palmitic linoleic hydroxyl glycerol, reference compound]
No. of mice that survived/total (Balb/c mice, 6.11 Gy TBI): 8/20
Survival (Balb/c mice, 6.11 Gy TBI): 40%
Survival time of decedents, Mean ± SEM (Balb/c mice, 6.11 Gy TBI): 18.8 ± 1.6 days
Survival time of decedents, Median (Balb/c mice, 6.11 Gy TBI): 18 days
body weight loss induced by irradiation (Balb/c mice, 6.11 Gy TBI): aggravated body weight loss
survival compared to control group (Balb/c mice, 6.11 Gy TBI; 250 mg/kg): no statistically significant difference

CC(C)S(=O)(=O)c1ccc2nccc(Nc3ccc4scnc4c3)c2c1 [GSK872, reference compound]
CXCL8 production (CXCL8): significant reduction

CN1C(=O)C(Cc2c[nH]c3ccccc23)NC1=S (centres unmarked) [Necrostin-1, reference compound]
CXCL8 production (CXCL8): significant reduction
